Test results as given in the NIST ThermoML archive (doi:10.1016/j.jct.2018.11.014).
Numbers after ± are expanded uncertainties.

Test: molar heat capacity at constant pressure
Settings: 101.33 kPa, Crystal, Vacuum adiabatic calorimetry

O=C(CO)[C@H](O)[C@H](O)[C@H](O)CO [D-psicose]
Settings	molar heat capacity at constant pressure [J/K/mol]
10 K	1.06 ± 0.02
13.99 K	3.375 ± 0.044
14.02 K	3.439 ± 0.044
14.28 K	3.64 ± 0.047
14.4 K	3.754 ± 0.048
14.66 K	3.847 ± 0.049
14.86 K	4.085 ± 0.051
15.13 K	4.198 ± 0.052
15.37 K	4.483 ± 0.055
15.64 K	4.671 ± 0.057
15.88 K	4.798 ± 0.058
16.15 K	5.026 ± 0.061
16.39 K	5.238 ± 0.063
16.66 K	5.478 ± 0.065
16.87 K	5.647 ± 0.067
17.18 K	5.894 ± 0.07
17.36 K	6.237 ± 0.073
17.71 K	6.348 ± 0.074
17.89 K	6.508 ± 0.076
18.23 K	6.844 ± 0.079
18.41 K	6.995 ± 0.081
18.75 K	7.275 ± 0.084
18.93 K	7.521 ± 0.086
19.28 K	7.752 ± 0.088
19.46 K	7.915 ± 0.09
19.8 K	8.239 ± 0.093
19.98 K	8.416 ± 0.095
20 K	8.42 ± 0.1
20.3 K	8.666 ± 0.098
20.5 K	8.908 ± 0.1
20.83 K	9.202 ± 0.1
21.03 K	9.391 ± 0.1
21.37 K	9.657 ± 0.11
21.57 K	9.861 ± 0.11
21.92 K	10.24 ± 0.11
22.13 K	10.42 ± 0.12
22.49 K	10.72 ± 0.12
22.7 K	10.96 ± 0.12
23.05 K	11.3 ± 0.12
23.26 K	11.48 ± 0.12
23.62 K	11.82 ± 0.13
23.81 K	12.26 ± 0.13
24.15 K	12.34 ± 0.13
24.36 K	12.54 ± 0.14
24.65 K	12.88 ± 0.14
24.9 K	13.06 ± 0.14
25.16 K	13.34 ± 0.14
25.45 K	13.61 ± 0.15
25.69 K	13.83 ± 0.15
26.02 K	14.15 ± 0.15
26.24 K	14.43 ± 0.15
26.59 K	14.76 ± 0.16
26.81 K	14.99 ± 0.16
27.15 K	15.34 ± 0.16
27.39 K	15.49 ± 0.16
27.7 K	15.88 ± 0.17
27.98 K	16.13 ± 0.17
28.26 K	16.42 ± 0.17
28.56 K	16.7 ± 0.18
28.82 K	16.95 ± 0.18
29.15 K	17.31 ± 0.18
29.37 K	17.41 ± 0.18
29.75 K	17.78 ± 0.19
29.95 K	18.06 ± 0.19
30 K	18.07 ± 0.19
30.36 K	18.41 ± 0.19
30.55 K	18.62 ± 0.2
31.01 K	19.02 ± 0.2
31.16 K	19.16 ± 0.2
31.66 K	19.69 ± 0.21
31.8 K	19.88 ± 0.21
32.32 K	20.31 ± 0.21
32.46 K	20.43 ± 0.21
32.98 K	20.91 ± 0.22
33.13 K	21.09 ± 0.22
33.66 K	21.61 ± 0.23
33.8 K	21.78 ± 0.23
34.35 K	22.21 ± 0.23
34.48 K	22.3 ± 0.23
35.05 K	22.92 ± 0.24
35.17 K	22.97 ± 0.24
35.76 K	23.59 ± 0.24
35.88 K	23.74 ± 0.25
36.48 K	24.27 ± 0.25
36.63 K	24.38 ± 0.25
37.21 K	24.86 ± 0.26
37.36 K	25.09 ± 0.26
37.96 K	25.64 ± 0.27
38.08 K	25.78 ± 0.27
38.67 K	26.21 ± 0.27
38.81 K	26.52 ± 0.27
39.35 K	26.89 ± 0.28
39.58 K	27.16 ± 0.28
40 K	27.53 ± 0.28
40.05 K	27.63 ± 0.28
40.43 K	27.95 ± 0.29
40.77 K	28.11 ± 0.29
41.28 K	28.77 ± 0.3
41.49 K	28.95 ± 0.3
42.02 K	29.4 ± 0.3
42.23 K	29.59 ± 0.3
42.78 K	30.13 ± 0.31
42.98 K	30.25 ± 0.31
43.57 K	30.79 ± 0.32
43.74 K	30.97 ± 0.32
44.37 K	31.59 ± 0.33
44.52 K	31.66 ± 0.33
45.16 K	32.25 ± 0.33
45.3 K	32.35 ± 0.33
45.96 K	33.05 ± 0.34
46.09 K	33.04 ± 0.34
46.74 K	33.72 ± 0.35
46.88 K	33.8 ± 0.35
47.53 K	34.42 ± 0.35
47.68 K	34.54 ± 0.35
48.33 K	35.15 ± 0.36
48.49 K	35.21 ± 0.36
49.13 K	35.86 ± 0.37
49.31 K	35.98 ± 0.37
49.94 K	36.62 ± 0.38
50 K	36.64 ± 0.38
50.14 K	36.77 ± 0.38
50.75 K	37.33 ± 0.38
51.57 K	38.05 ± 0.39
52.37 K	38.74 ± 0.4
53.17 K	39.44 ± 0.4
53.96 K	40.14 ± 0.41
54.75 K	40.85 ± 0.42
55.53 K	41.56 ± 0.42
56.33 K	42.23 ± 0.43
57.14 K	42.92 ± 0.44
57.94 K	43.52 ± 0.45
58.76 K	44.3 ± 0.45
59.58 K	45.03 ± 0.46
60 K	45.42 ± 0.46
60.41 K	45.79 ± 0.47
61.24 K	46.57 ± 0.47
62.08 K	47.21 ± 0.48
62.92 K	47.95 ± 0.49
63.78 K	48.66 ± 0.5
64.64 K	49.47 ± 0.51
65.5 K	50.22 ± 0.51
66.42 K	50.91 ± 0.52
67.38 K	51.71 ± 0.53
68.32 K	52.51 ± 0.54
69.24 K	53.27 ± 0.54
70 K	53.92 ± 0.55
70.15 K	54.04 ± 0.55
71.1 K	54.88 ± 0.56
72.09 K	55.67 ± 0.57
73.08 K	56.51 ± 0.58
74.09 K	57.32 ± 0.58
75.11 K	58.14 ± 0.59
76.17 K	59.03 ± 0.6
77.3 K	59.96 ± 0.61
78.43 K	60.89 ± 0.62
79.19 K	61.65 ± 0.63
79.55 K	61.8 ± 0.63
80 K	62.17 ± 0.63
80.16 K	62.27 ± 0.63
80.67 K	62.64 ± 0.64
81.12 K	63.07 ± 0.64
81.85 K	63.65 ± 0.65
82.06 K	63.87 ± 0.65
82.72 K	64.37 ± 0.66
83.04 K	64.72 ± 0.66
83.07 K	64.59 ± 0.66
83.74 K	65.19 ± 0.66
84.05 K	65.44 ± 0.67
84.3 K	65.6 ± 0.67
84.74 K	66.03 ± 0.67
85.05 K	66.26 ± 0.67
85.58 K	66.72 ± 0.68
85.73 K	66.8 ± 0.68
86.07 K	67.06 ± 0.68
86.71 K	67.55 ± 0.69
86.87 K	67.6 ± 0.69
87.09 K	67.95 ± 0.69
87.73 K	68.44 ± 0.7
88.15 K	68.72 ± 0.7
88.2 K	68.72 ± 0.7
88.8 K	69.22 ± 0.7
89.24 K	69.63 ± 0.71
89.57 K	69.81 ± 0.71
89.88 K	70.11 ± 0.71
90 K	70.2 ± 0.73
90.32 K	70.45 ± 0.73
90.92 K	70.89 ± 0.73
90.95 K	70.98 ± 0.73
91.39 K	71.33 ± 0.74
92.01 K	71.78 ± 0.74
92.24 K	71.95 ± 0.74
92.44 K	72.09 ± 0.75
93.1 K	72.72 ± 0.75
93.53 K	73.06 ± 0.76
93.55 K	72.93 ± 0.76
94.22 K	73.58 ± 0.76
94.64 K	73.83 ± 0.76
94.9 K	74.01 ± 0.77
95.33 K	74.47 ± 0.77
95.76 K	74.71 ± 0.77
96.28 K	75.12 ± 0.78
96.44 K	75.31 ± 0.78
96.92 K	75.66 ± 0.78
97.56 K	76.24 ± 0.79
97.64 K	76.12 ± 0.79
98.12 K	76.55 ± 0.79
98.71 K	77.11 ± 0.8
98.99 K	77.22 ± 0.8
99.36 K	77.58 ± 0.8
99.92 K	78.04 ± 0.81
100 K	78.04 ± 0.8
100.32 K	78.22 ± 0.81
100.64 K	78.58 ± 0.81
101.13 K	78.97 ± 0.81
101.68 K	79.27 ± 0.82
101.91 K	79.49 ± 0.82
102.33 K	79.86 ± 0.82
103.08 K	80.34 ± 0.83
103.16 K	80.4 ± 0.83
103.51 K	80.73 ± 0.83
104.4 K	81.45 ± 0.84
104.47 K	81.42 ± 0.84
104.73 K	81.75 ± 0.84
105.67 K	82.37 ± 0.85
105.83 K	82.47 ± 0.85
105.97 K	82.66 ± 0.85
106.98 K	83.32 ± 0.86
107.19 K	83.5 ± 0.86
107.21 K	83.56 ± 0.86
108.27 K	84.28 ± 0.87
108.43 K	84.6 ± 0.87
108.57 K	84.51 ± 0.87
109.54 K	85.27 ± 0.88
109.64 K	85.41 ± 0.88
109.99 K	85.61 ± 0.88
110 K	85.65 ± 0.88
110.81 K	86.25 ± 0.89
110.88 K	86.33 ± 0.89
111.39 K	86.67 ± 0.89
112.1 K	87.19 ± 0.9
112.15 K	87.32 ± 0.9
112.78 K	87.7 ± 0.9
113.41 K	88.29 ± 0.91
113.43 K	88.23 ± 0.91
114.16 K	88.71 ± 0.91
114.66 K	89.15 ± 0.92
114.74 K	89.18 ± 0.92
115.57 K	89.78 ± 0.92
115.89 K	90.08 ± 0.92
116.04 K	90.2 ± 0.93
117.01 K	90.83 ± 0.93
117.16 K	91.03 ± 0.93
117.33 K	91.11 ± 0.93
118.44 K	91.9 ± 0.94
118.47 K	92.11 ± 0.94
118.65 K	92.13 ± 0.94
119.8 K	92.98 ± 0.95
119.86 K	92.95 ± 0.95
120 K	93.09 ± 0.95
120.39 K	93.31 ± 0.96
121.11 K	93.95 ± 0.96
121.28 K	94.01 ± 0.96
121.69 K	94.22 ± 0.96
122.42 K	94.92 ± 0.97
122.77 K	95.15 ± 0.97
